This passage reports MIC, IC50 and inhibition results from US20210070747A1, “2(1H)-QUINOLINONE DERIVATIVE” (priority 2017, published 2021).

The test system of assay [1] is N. gonorrhoeae ATCC 49226. Nature of the assay: Test for evaluating antibacterial activity (N. gonorrhoeae), broth microdilution MIC. Conditions: Neisseria gonorrhoeae, ATCC49226; 35° C., 24 hours, gonococcal broth. In kind it is cell-based. On the procedure:
Minimum inhibitory concentration (MIC) was measured using the broth microdilution method described below in accordance with a modification of the method of Geers et al. (Antimicrob. Agents. Chemother. (1989), 33, 233-234).
After sterilization, BD. Difco supplement C was added to give a final concentration of 1%, whereby a gonococcal broth was prepared.
Bacterial cells under test were cultured overnight on a chocolate II agar medium, scraped off and suspended at a concentration equivalent to McFarland 0.5 turbidity; the suspension thus obtained was diluted 5 folds to give a liquid inoculum. The inoculum (0.005 mL) was inoculated on a gonococcal broth containing the analyte compound and cultured at 35° C. for 24 hours. A minimum drug concentration at which no bacterial growth was macroscopically visible was designated MIC.
For orientation: In broth dilution the organism is exposed to a series of concentrations in liquid medium.

Another assay has as its target T1, E. coli DNA gyrase (Escherichia coli, UniProt P0AES6).
T1 construct: made in house; host or cells: E. coli BL21 (DE3)
The assay can be described thus: Test for evaluating the activity of inhibiting E. coli DNA gyrase enzyme (Method 2, supercoiling, recombinant gyrA/gyrB complex). In kind it is biochemical. On the procedure: The enzymatic activity of E. coli DNA gyrase was measured by a method comprising reacting DNA gyrase and its substrate, relaxed pBR322 (Inspiralis), in the presence of ATP and detecting the post-reaction supercoiled pBR322/relaxed pBR322 ratio with H19.
Specifically, to 1 ng/μL of relaxed pBR322, E. coli DNA gyrase enzyme (the gyrA or gyrB gene was incorporated into the pET15b plasmid and after expressing them in E. coli BL21 (DE3), purification was performed using a Ni-NTA column to form a complex at room temperature) was added at a final concentration of 0.135 nmol/mL and the mixture was incubated for 60 minutes at room temperature. This reaction was carried out in 20 mmol/L tris-HCl buffered solution (pH 8.0) comprising 0.5 mmol/L ATP, 0.005% bridge 35, 35 mmol/L ammonium acetate, 8 mmol/L magnesium chloride, 4.6% glycerol, and 1 mmol/L dithiothreitol. To the reaction mixture, H19 was added to bring the reaction to an end; thereafter, the supercoiled pBR322/relaxed pBR322 ratio was detected at excitation wavelength/emission wavelength=485 nm/535 nm. An inhibition curve was obtained by allowing the analyte compound to be present at varying concentrations during the reaction described above.

A further assay has as its system E. Coli ATCC 25922. The assay can be described thus: Test for evaluating antibacterial activity (E. coli), broth microdilution MIC. The format is cell-based. The settings on record: Escherichia coli, ATCC25922; 35° C., 18 hours, cation-adjusted Mueller-Hinton medium. On the procedure:
Minimum inhibitory concentration (MIC) was measured using the broth microdilution method described below in accordance with a modification of the standard method specified by CLSI (Clinical & Laboratory Standards Institute).
Bacterial cells under test were cultured overnight on a heart infusion agar medium, scraped off and suspended at a concentration equivalent to McFarland 0.5 turbidity; the suspension thus obtained was diluted 10 folds to give a liquid inoculum. The inoculum (0.005 mL) was inoculated on a cation-adjusted Mueller-Hinton medium containing the analyte compound and cultured at 35° C. for 18 hours. A minimum drug concentration at which no bacterial growth was macroscopically visible was designated MIC.

[2] abbreviates: Method 2, read-out: E. Coli Gyrase supercoiling IC50.

pIC50: −log10 of the molar value. Converted amounts (≈) assume the structure as drawn. Where two headings read alike, the source gives them in different places.

In general, MIC refers to the lowest concentration that inhibits growth of the organism. Higher therefore signals a need for much substance. In general, pIC50 refers to the IC50 on a negative log10 scale, so that one unit is a factor of ten. `CNc1cccc2cc(C(=O)Nc3cccc(C(=O)O)c3)c(=O)[nH]c12` [Example 1, 3-[[8-(Methylamino)-2-oxo-1,2-dihydroquinoline-3-carbonyl]amino]benzoic Acid]: the MIC was over 4 µg/mL in assay [1] and over 64 µg/mL in the assay on E. Coli ATCC 25922. Besides, at E. coli DNA gyrase (setting [2]), the pIC50 was 7.28.
On to `CNc1cccc2cc(C(=O)Nc3cccc(CC(=O)O)c3)c(=O)[nH]c12` [Example 4, (3-{[8-(methylamino)-2-oxo-1,2-dihydroquinoline-3-carboyl]amino}phenyl)acetic acid], for which the MIC is over 4 µg/mL in assay [1] and over 64 µg/mL against E. Coli ATCC 25922. The pIC50 at E. coli DNA gyrase (setting [2]) was 6.78.
Consider `CNc1cccc2cc(C(=O)NCCc3nc(O)cc(O)n3)c(=O)[nH]c12` [Example 32, N-[2-(4,6-dihydroxy-pyrimidine-2-yl)ethyl]-8-(methylamino)-2-oxo-1,2-dihydroquinoline-3-carboxamide], for which the minimum inhibitory concentration (MIC) is over 4 µg/mL in assay [1] and over 64 µg/mL against E. Coli ATCC 25922. The pIC50 at E. coli DNA gyrase (setting [2]) is 7.60.
On the same counts, the results for `CNc1cccc2cc(C(=O)Nc3cnc(CO)nc3)c(=O)[nH]c12` [Example 37, N-[2-(hydroxymethyl)pyrimidine-5-yl]-8-(methylamino)-2-oxo-1,2-dihydroquinoline-3-carboxamide] are 1 µg/mL (≈ 3.07 µM), over 4 µg/mL and 8.00.
For `CNc1cc(F)cc2cc(C(=O)NCCc3ccc(O)c(OC)c3)c(=O)[nH]c12` [Example 81, 6-fluoro-N-[2-(4-hydroxy-3-methoxyphenyl)ethyl]-8-(methylamino)-2-oxo-1,2-dihydroquinoline-3-carboxamide], the MIC in assay [1] was over 1 µg/mL. Besides, the pIC50 on E. coli DNA gyrase (setting [2]) is 6.96.
Regarding `CNc1cc(F)cc2cc(C(=O)Nc3ccc(C(=O)O)cc3CN(C)C3CCN(C)CC3)c(=O)[nH]c12.Cl` [Example 83, 4-{[6-fluoro-8-(methylamino)-2-oxo-1,2-dihydroquinoline-3-carbonyl]amino)-3-{[methyl(1-methylpiperidine-4-yl)amino]methyl} benzoic acid-hydrochloride], the values for the MIC (in assay [1]; with E. Coli ATCC 25922) were over 4 µg/mL and over 16 µg/mL, respectively. For the same molecule, the pIC50 at E. coli DNA gyrase is 8.96.
In the case of `CNc1cc(F)cc2cc(C(=O)Nc3cnccc3CO)c(=O)[nH]c12` [Example 91, 6-Fluoro-N-[4-(hydroxymethyl)pyridin-3-yl]-8-(methylamino)-2-oxo-1,2-dihydroquinoline-3-carboxamide], the MIC in assay [1] was 1 µg/mL (≈ 2.92 µM); with E. Coli ATCC 25922, over 16 µg/mL. Further, the pIC50 at E. coli DNA gyrase (setting [2]) was 7.73.
On to `CCc1cc(C(=O)O)ccc1NC(=O)c1cc2cc(F)cc(NC)c2[nH]c1=O` [Example 93, 3-ethyl-4-{[6-fluoro-8-(methylamino)-2-oxo-1,2-dihydraquinoline-3-carbonyl]amino} benzoic acid], for which the MIC is 0.25 µg/mL (≈ 0.652 µM) in assay [1] and over 2 µg/mL in the assay with E. Coli ATCC 25922. Moreover, the pIC50 on E. coli DNA gyrase (setting [2]) was 7.50.
Consider `CNc1cc(F)cc2cc(C(=O)Nc3cnccc3CN(C)C3CCCCC3)c(=O)[nH]c12` [Example 95, N-(4-{[cyclohexyl(methyl)amino]methyl}pyridine-3-yl)-6-fluoro-8-(methylamino)-2-oxo-1,2-dihydroquinoline-3-carboxamide], for which the MIC in assay [1] is 1 µg/mL (≈ 2.29 µM); against E. Coli ATCC 25922 it was over 16 µg/mL. In addition, the pIC50 on E. coli DNA gyrase is 8.67.
With `CNc1cc(F)cc2cc(C(=O)Nc3c(C)cc(C(=O)O)cc3CN(C)C3CCCCC3)c(=O)[nH]c12` [Example 99, 3-{[cyclohexyl (methyl)amino]methyl}-4-{[6-fluoro-8-(methylamino)-2-oxo-1,2-dihydroquinoline-3-carbonyl]amino}-5-methylbenzoic acid], the minimal inhibitory concentration (MIC) in assay [1] worked out at 0.25 µg/mL (≈ 0.505 µM); in the assay with E. Coli ATCC 25922 it was 64 µg/mL (≈ 129 µM). Further, the pIC50 on E. coli DNA gyrase (setting [2]) was 9.15.
As to `CNc1cc(F)cc2nc(C(=O)Nc3ccc(C(=O)O)cc3CN(C)C3CCCCC3)c(=O)[nH]c12` [Example 100, 3-[[Cyclohexyl(methyl)amino]methyl]-4-[[7-fluoro-5-(methylamino)-3-oxo-3,4-dihydroquinoxaline-2-carbonyl]amino]benzoic Acid], the MIC in assay [1] is over 1 µg/mL; against E. Coli ATCC 25922, over 64 µg/mL. In addition, the pIC50 at E. coli DNA gyrase (setting [2]) was 7.47.
As to `CNc1cc(F)cc2cc(C(=O)Nc3ccccc3CN(CC(=O)O)C3CCCCC3)c(=O)[nH]c12` [Example 103, N-cyclohexyl-N-[(2-{[6-fluoro-8-(methylamino)-2-oxo-1,2-dihydroquinoline-3-carbonyl]amino}phenyl)methyl]glycine], the MIC is 4 µg/mL (≈ 8.32 µM) in assay [1] and over 64 µg/mL in the assay on E. Coli ATCC 25922. In addition, the pIC50 at E. coli DNA gyrase is 7.92.
On to `CCCCCCCCN(CCCCCCCC)Cc1cc(C(=O)O)ccc1NC(=O)c1cc2cc(F)cc(NC)c2[nH]c1=O` [Example 106, 3-[(dioctylamino)methyl]-4-{[6-fluoro-8-(methylamino)-2-oxo-1,2-dihydroquinoline-3-carbonyl]amino} benzoic acid], for which the MIC was 0.5 µg/mL (≈ 0.821 µM) in assay [1] and over 8 µg/mL in the assay on E. Coli ATCC 25922. The pIC50 at E. coli DNA gyrase (setting [2]) was 8.16.
On the same counts, the results for `CNc1cncc2cc(C(=O)Nc3ccc(C(=O)O)cc3CN(C)C3CCCCC3)c(=O)[nH]c12` [Example 108, 3-[[Cyclohexyl(methyl)amino]methyl]-4-[[8-(methylamino)-2-oxo-1,2-dihydro-1,6-naphthyridine-3-carbonyl]amino]benzoic Acid] are over 1 µg/mL, over 32 µg/mL and 8.22.
Take `CNc1cc(F)cc2cc(C(=O)Nc3ccc(C(=O)O)cc3CN(CCN)C3CCCCC3)c(=O)[nH]c12.O=C(O)C(F)(F)F` [Example 110, 3-{[(2-aminoethyl)(cyclohexyl)amino]methyl}-4-{[6-fluoro-8-(methylamino)-2-oxo-1,2-dihydroquinoline-3-carbonyl]amino}benzoic acid-trifluoroacetate]: the MIC is over 1 µg/mL in assay [1] and over 64 µg/mL against E. Coli ATCC 25922. Besides, the pIC50 at E. coli DNA gyrase is 8.43.
For `CNc1cc(F)cc2cc(C(=O)N[C@H]3CC[C@H](C(=O)O)CC3)c(=O)[nH]c12` [Example 116, trans-4-{[6-fluoro-8-(methylamino)-2-oxo-1,2-dihydroquinoline-3-carbonyl]amino} cyclohexane-1-carboxylic acid] the same measures were over 1 µg/mL, over 64 µg/mL and 6.86.
Broadly, the inhibition is the percentage by which the read-out fell short of the control. Turning to `CNc1cc(F)cc2c(OC)c(C(=O)Nc3ccc(C(=O)O)cc3)c(=O)[nH]c12` [Example 118, 4-[[6-Fluoro-4-methoxy-8-(methylamino)-2-oxo-1,2-dihydroquinoline-3-carbonyl]amino]benzoic Acid], the MIC is 1 µg/mL (≈ 2.6 µM) in assay [1] and over 64 µg/mL with E. Coli ATCC 25922. Besides, the inhibition at 0.1 µM at E. coli DNA gyrase (Method 2, at 100 nM) is 45%.
Consider `CNc1cc(F)cc2cc(C(=O)Nc3ccc(C(N)=O)cc3CN(C)C3CCCCC3)c(=O)[nH]c12` [Example 121, N-(4-carbamoyl-2-{[cyclohexyl(methyl)amino]methyl}phenyl)-6-fluoro-8-(methylamino)-2-oxo-1,2-dihydroquinoline-3-carboxamide], for which the MIC in assay [1] was 0.25 µg/mL (≈ 0.521 µM); in the assay with E. Coli ATCC 25922, over 32 µg/mL. Besides, the pIC50 on E. coli DNA gyrase (setting [2]) was 8.61.
Consider `CNc1cc(F)cc2cc(C(=O)Nc3ccc(CO)cc3CN(C)C3CCCCC3)c(=O)[nH]c12` [Example 122, N-[2-{[cyclohexyl(methyl)amino]methyl}-4-(hydroxymethyl)phenyl]-6-fluoro-8-(methylamino)-2-oxo-1,2-dihydroquinoline-3-carboxamide], for which the MIC in assay [1] was 0.5 µg/mL (≈ 1.07 µM); in the assay on E. Coli ATCC 25922, 16 µg/mL (≈ 34.3 µM). The pIC50 at E. coli DNA gyrase (setting [2]) was 8.72.
On the same counts, the results for `CNc1cc(F)cc2c(O)c(C(=O)Nc3ccccc3)c(=O)[nH]c12` [Example 129, 6-fluoro-4-hydroxy-8-(methylamino)-2-oxo-N-phenyl-1,2-dihydroquinoline-3-carboxamide] are 1 µg/mL (≈ 3.06 µM), over 16 µg/mL and 6.41.
Turning to `CNc1cc(F)cc2c(NCCCN)c(C(=O)Nc3ccc(C(=O)O)cc3)c(=O)[nH]c12.O=CO` [Example 132, 4-({4-[(3-aminopropyl)amino]-6-fluoro-8-(methylamino)-2-oxo-1,2-dihydroquinoline-3-carbonyl}amino)benzoic acid-formate], the MIC was 0.25 µg/mL in assay [1] and over 8 µg/mL in the assay with E. Coli ATCC 25922. Besides, the pIC50 at E. coli DNA gyrase is 9.28.
